Results as given in article PMC7287882, “Dual miRNases for Triple Incision of miRNA Target: Design Concept and Catalytic Performance” (Molecules, 2020).

System: miR-17
Test: Ribonuclease activity assay with DC or ON and RNase H, miR-17
Assay type: biochemical
Conditions: for total extent of miRNA cleavage in the presence of RNase H: miRNA 1 µM, DC or ON 20 µM, buffer (2) pH 7.8, 37 °C, at plateau, by 2 h
Procedure: It is known that DNA-like antisense oligonucleotides after binding to target RNAs form a substrate for intracellular endonuclease RNases H. RNA hydrolysis in RNA-DNA heteroduplex by RNase H1 occurs at a distance of 6–10 nucleotides from the 5′-end of RNA (approximately one turn of the helix). Our design of the Dual conjugates here was carried out in such a way to ensure that their heteroduplexes with the matching miRNA sequences could serve as potential substrates for RNase H. To achieve that, we ensured that the length of the oligonucleotide recognition motifs A and B within the DC was 8–10 nt, which was expected to be sufficient for interaction and cleavage by RNase H (see Figure 1 and Table 1). As indicated above, a few adenine aromatic basis within each recognition motifs A and B were replaced with 2-aminoadenines to enhance the hybridization ability of the DC with miRNA. […] In order to verify this, as well as to evaluate the ability of RNase H to contribute to the miRNA cleavage catalyzed by DC, we studied the kinetics of the target miRNA cleavage performed (1) by the DC alone; (2) by RNase H, when the target miRNA was hybridized with the nonconjugated Dual oligonucleotide (ON); and (3) by both DC and RNase H present in the same reaction mixture. The study was performed against miR-17, miR-155 and miR-21 using a 20-fold excess of DCs or respective oligonucleotides over the matching miRNA (see Table 1 for sequences).
Figure 6 Cleavage kinetics of 5′-[^32P]-labeled miRNAs by DCs and/or RNase H. (a,d,g). Radioautographs of 18% denaturing PAAG showing the profiles of cleavage of miR-17, miR-155 and miR-21, respectively. Duplexes formed by 5′-[^32P]-miRNA (1 µM) and DC or ON (20 µM) were incubated at 37 °C for 48–72 h. RNase H was taken in the concentration of 5 or 100 u/mL. Lanes Im and T1–imidazole ladder and partial RNA digestion with RNase T1, respectively; control–RNA was incubated in the absence of DC or ON and in the presence of RNase H (100 u/mL); (b,e,h) Time dependency of cleavage of miR-17, miR-155 and miR-21, respectively, by DCs and/or RNase H. Data are presented as mean ± s.e. *—indicates statistically significant difference with p < 0.05; (c,f,i). Positions of miR-17, miR-155 and miR-21 cleavage, respectively, induced by RNase H in duplex with ON (red arrows), and by combination of DC (black arrows) and RNase H. A–2-aminoadenine.
The reaction mixture (10 µL) containing 20 mM Tris-HCl, pH 7.8, 40 mM KCl, 8 mM MgCl2, 1 mM DTT, 0.02 mg/mL BSA, 800 cpm (Cherenkov’s counting) of [^32P]-miRNA, 1 µM unlabeled miRNA, 20 µM either DC or Dual oligonucleotide was incubated at 37 °C for 20 min then RNase H (5 or 100 U/mL) was added and the mixture was further incubated for 48 h. Aliquots were taken at 0, 1, 6, 24 and 48 h then the reaction was quenched, RNA cleavage products were collected and analyzed as described above.

CTACCTGC–linker 1–[GRLRL]2–linker 2–AAGCACTTTG [miRNA-17-DC, Dual oligonucleotide-peptide conjugate targeted to miR-17: catalytic peptide [LRLRG]2 between two 2-aminoadenine-containing oligodeoxyribonucleotides]
total extent of miRNA cleavage in the presence of RNase H (RNase H 5 u/mL): 44%
total extent of miRNA cleavage in the presence of RNase H (RNase H 100 u/mL): 92%
total efficiency of cleavage in the complex with DC relative to the miRNA/ON complex (RNase H at both 5 and 100 u/mL): more than 1.5 fold
increase in the rate of cleavage by DC with RNase H compared with DC alone (after 1 h): up to 10 fold
increase in the rate of cleavage by DC with RNase H compared with RNase H alone (after 1 h): 1.5 fold
